In one assay the target is recombinant human mTOR (Homo sapiens (Human), UniProt P42345). Kind of assay: Test 1: mTOR ATP-binding assay based on TR-FRET. As to conditions: GST-tagged truncated human mTOR, tracer-314, TR-FRET. The method, then:
Test 1: mTOR ATP-Binding Assay Based on TR-FRET for Recombinant Human mTOR
2. The final volume of the assay is 10 μL and the order of addition is as follows:
50 nL of compounds dilution;
Incubated for 60 minutes at room temperature.
TR-FRET measured in Biotek Synergy2 reader at: • Excitation 340 nm/emission 665 nm • Excitation 340 nm/emission 620 nm
The following final concentrations are used:
1 nM Europium anti-GST antibody;
The following controls are used:
3. IC50 determinations may be performed as follows:
The Emission ratio is converted to percentage of inhibition for each compound concentration. IC50 values are calculated by fitting a sigmoidal dose-response curve to a plot of assay readout over compound concentration. All fits and analysis are performed with the program XLfit4 (ID Business Solutions, Guildford, UK).

In assay [1] the test system is cellular mTOR kinase activity (phosphorylation of Thr 389 of S6K1) in TSC1-/- MEFs. Kind of assay: Test 2: Cellular mTOR assay (P-P70S6K T389 Surefire). Conditions: Mus musculus. Type of assay: cell-based. The method, then:
Test 2: Cellular mTOR Assay
30 μl are added per well to a 384 well-plate using a Multidrop instrument (Thermo scientific), resulting in 4000 cells/well. The plates are incubated at 37° C./5% CO2 for 20 hours (to allow for settling and adherance to the surface).
Eight 3-fold serial dilutions of test-compounds (beginning at 1.8 mM) are prepared in 90% DMSO and compiled on 384 well master plates (Greiner). A pan-pPI3K/mTOR inhibitor (0.8 mM of 8-(6-methoxy-pyridin-3-yl)-3-methyl-1-(4-piperazin-1-yl-3-trifluoromethyl-phenyl)-1,3-dihydro-imidazo[4,5-c]quinolin-2-one in 90% DMSO) is added to the wells for the low control. 90% DMSO is added to the wells for the high controls. Compounds are provided as 250 nl shots (Hummingbird) in 384 well-polypropylene microplates (compound plates). 50 μl of growth medium is added to the compound plates (dilution 1:200) with the Multidrop. After shaking (1 min at 2000 rpm), 10 μl of the first dilution is then transferred to the cell plate with a Matrix Plate Mate 2×3 pipettor (final dilution 1:4). After 1 hour of treatment, medium is removed from the plate and 20 μl of Surefire lysis buffer is added per well with the Multidrop.
Cell lysates are frozen for 15 minutes, thawed with shaking and transferred to the experimental 384 well-Proxiplate (5 μl/well) for the P-P70S6K (T389) Surefire assay (Perkin Elmer #TGR70S50). The first mix is composed of the reaction buffer (containing the specific antibody), the activation buffer and the acceptor beads (40 vol, 10 vol and 1 vol respectively). 5 μl per well is added to the lysates with a Zephyr® SPE Workstation (Caliper Life Sciences) and incubated for 2 hours with shaking at room temperature. After this incubation time, the second mix of dilution buffer and donor beads (20 vol and 1 vol respectively) is added to the plate with the same instrument (2 μl/well). After 2 hours, the plate can be read with an EnVision® Multilabel Reader (Perkin Elmer). Since the beads are light sensitive, their transfer and incubation is executed in a dark room (greenlight).
The raw data is used to generate dose response curves for test compounds and IC50 values calculated therefrom.

The test system of another assay is H4 mCherry-GFP-LC3 cells. Put plainly: Test 3: Autophagy assay (mCherry-GFP-LC3 reporter, high-content imaging). It is filed as cell-based, human. As to conditions: 16-18 h treatment, mCherry-positive LC3 puncta/cell; for EC50: Homo sapiens. The source says: Autophagy is a catabolic pathway that degrades bulk cytosol in lysosomal compartments enabling amino acids and fatty acids to be recycled. One of the key regulators of autophagy is the mammalian target of rapamycin (mTOR), a conserved serine/threonine kinase which suppresses the initiation of the autophagic process when nutrients, growth factors and energy are available. To quantify autophagy induction by mTOR inhibitors, we use a mCherry-GFP-LC3 reporter which is amenable to retroviral delivery into mammalian cells, stable expression and analysis by fluorescence microscopy.
The amino acid sequence of the mCherry-GFP-LC3 construct is shown below (SEQ ID NO: 1). The mCherry sequence is underlined, GFP sequence is in bold and LC3A sequence is boxed.
Described hereinafter is an imaging protocol and image recognition algorithm to visualize and measure changes in the autophagic pathway.
Quantification of Autophagy Using High-Content Imaging and Analysis
• 1. Day 0: Cell plating. Subconfluent H4 mCherry-GFP-LC3 cells are harvested by trypsinization, resuspended in growth medium, and counted (H4 cells: Human neuroglioma cell line (ATCC)). A cell suspension of 66′000 cells/mL is prepared and 30 μL are added into the wells of a 384-well plate using an electronic multichannel pipette. […] The cell plates are briefly spun down and placed at 37° C. and 5% CO2. • 2. Day 1: Compound treatment. Compound dose responses are prepared in DMSO. The dose responses are then diluted 1:50 in medium. 10 ul of the diluted compound is added to 30 ul of cells, yielding a final 1:200 dilution of the original compound and final of 0.5% DMSO. Compound-treatments are performed in triplicates. The 384-well plates are placed at 37° C. and 5% CO2. Compound treatment is performed for 16-18 h (see Note 1). • 3. Day 2: Cell fixation. Cells are fixed by adding 10 μL/well 5× concentrated Mirsky's fixative supplemented with 25 μg/mL Hoechst33342. […] The 384-well plate is briefly spun down and incubated for 1 h at room temperature. Cells are then washed using a 384-well plate washer using a protocol which aspirates the volume down to 10 μL/well before dispensing 100 μL/well 1×TBS. Aspiration and dispensing steps are repeated 4 times and a final volume of 100 μL/well is left. The plate is sealed using an adhesive PCR foil. • 4. Imaging. The bottom of the plate is cleaned with 70% ethanol and then imaged using the InCell 1000 automated epifluorescence microscope. 20× magnification is used and 4 different areas (fields) are imaged per well, this typically captures a total of around 400 cells per well. Hoechst33342 images are acquired using an excitation of 360 nm (D360_40x filter), an emission of 460 nm (HQ460_40M filter) and an exposure time of 150 ms. GFP images are acquired using an excitation of 475 nm (S475_20x filter), an emission of 535 nm (HQ535_50M filter) and an exposure time of 1 s. mCherry images are acquired using an excitation of 535 nm (HQ535_50x filter), an emission of 620 nm (HQ620_60M filter) and an exposure time of 1 s. A quadruple band pass mirror is used for all images. • 5. Image analysis. The InCell Analysis software is used to analyze the images using the Multi Target Analysis algorithm. First, nuclei are detected in the Hoechst33342 image using top-hat segmentation and a minimal nuclear area of 50 μm^2. Cells are defined using a collar of 10 μm around the nuclei. Second, puncta (organelles) are identified in the mCherry image inside the cells using multi-top-hat segmentation. Third, the mask of the mCherry puncta is transferred onto the GFP image. Fourth, the GFP fluorescence intensity inside the mCherry puncta mask is measured (reference intensity). • 6. The ‘organelles’ parameter reflects mCherry-positive puncta of the mCherry-GFP-LC3 reporter and is used to calculate ‘LC3 puncta/cell’. […]

Where [2] appears, read: TSC1-/- MEFs, 1 hour treatment, P-P70S6K (T389), read-out: Test 2: T389 cellular assay IC50.
[3] abbreviates: 1 h, read-out: Test 2: T389 cellular assay IC50 (nM).

The structures appear in SMILES notation. Read-outs that look alike come from different tables or passages of the source.

recombinant human mTOR, sequence (P42345 1360-2549): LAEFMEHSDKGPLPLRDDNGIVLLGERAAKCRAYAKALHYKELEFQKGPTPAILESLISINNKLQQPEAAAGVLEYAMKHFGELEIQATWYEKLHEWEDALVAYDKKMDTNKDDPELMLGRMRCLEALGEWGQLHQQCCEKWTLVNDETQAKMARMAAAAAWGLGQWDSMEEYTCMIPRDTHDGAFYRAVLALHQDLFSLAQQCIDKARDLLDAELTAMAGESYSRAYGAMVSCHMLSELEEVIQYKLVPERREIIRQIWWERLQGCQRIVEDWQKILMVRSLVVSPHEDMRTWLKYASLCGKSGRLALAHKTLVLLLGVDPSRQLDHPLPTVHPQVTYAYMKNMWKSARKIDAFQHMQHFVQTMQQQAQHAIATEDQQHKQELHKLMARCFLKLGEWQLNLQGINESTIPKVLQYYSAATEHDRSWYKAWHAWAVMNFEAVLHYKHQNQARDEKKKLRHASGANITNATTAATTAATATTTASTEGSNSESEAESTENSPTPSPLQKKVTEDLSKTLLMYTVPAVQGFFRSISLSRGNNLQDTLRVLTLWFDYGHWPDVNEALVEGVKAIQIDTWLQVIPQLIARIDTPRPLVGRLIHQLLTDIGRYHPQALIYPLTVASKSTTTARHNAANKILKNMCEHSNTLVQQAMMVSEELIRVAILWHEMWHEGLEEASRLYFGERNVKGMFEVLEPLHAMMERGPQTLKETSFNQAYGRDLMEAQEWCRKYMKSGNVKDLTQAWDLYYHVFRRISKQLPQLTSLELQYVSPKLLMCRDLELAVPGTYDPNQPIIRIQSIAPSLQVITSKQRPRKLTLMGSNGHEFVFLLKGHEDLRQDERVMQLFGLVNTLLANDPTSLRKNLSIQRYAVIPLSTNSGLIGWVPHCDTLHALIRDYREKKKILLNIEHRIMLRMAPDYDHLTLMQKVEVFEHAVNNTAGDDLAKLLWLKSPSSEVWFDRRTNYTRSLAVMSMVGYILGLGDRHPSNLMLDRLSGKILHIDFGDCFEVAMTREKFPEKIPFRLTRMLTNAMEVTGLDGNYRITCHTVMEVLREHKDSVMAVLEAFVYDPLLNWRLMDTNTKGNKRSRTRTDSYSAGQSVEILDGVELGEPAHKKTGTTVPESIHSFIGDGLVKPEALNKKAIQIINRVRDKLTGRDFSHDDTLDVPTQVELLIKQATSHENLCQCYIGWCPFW

Turning to `C[C@@H]1COCCN1c1nc(N2CCOC[C@H]2C)c2nc(-c3ccc(-c4ncc[nH]4)cc3)[nH]c2n1` [Example 4, 8-[4-(1H-Imidazol-2-yl)-phenyl]-2,6-bis-((R)-3-methyl-morpholin-4-yl)-9H-purine], the half-inhibitory concentration (IC50) was found to be 2120 nM at recombinant human mTOR and 1550 nM in assay [1] (setting [2]). It took 2160 nM to reach a half-maximal effect in the assay on H4 mCherry-GFP-LC3 cells (EC50).

As for `C[C@H]1COCCN1c1nc(N2CCOC[C@@H]2C)c2nc(-c3ccc(-c4ncc[nH]4)cc3)[nH]c2n1` [Example 30, 8-[4-(1H-Imidazol-2-yl)-phenyl]-2,6-bis-((S)-3-methyl-morpholin-4-yl)-9H-purine], the IC50 turned out to be 364 nM on recombinant human mTOR and 1140 nM in assay [1] (setting [2]). Also, the EC50 with H4 mCherry-GFP-LC3 cells was 1460 nM.

For `C[C@@H]1CN(c2nc(N3CCOC[C@H]3C)c3nc(-c4cccc5[nH]ccc45)[nH]c3n2)C[C@H](C)O1` [Example 23, 2-((2S,6R)-2,6-Dimethyl-morpholin-4-yl)-8-(1H-indol-4-yl)-6-((R)-3-methyl-morpholin-4-yl)-9H-purine], the concentration for half-maximal inhibition (IC50) at recombinant human mTOR came to 78 nM; in assay [1] (setting [3]), 104 nM. The “Test 3: Autophagy EC50 (nM)” value with H4 mCherry-GFP-LC3 cells is listed as “n.m”.

Take `C[C@@H]1COCCN1c1nc(N2CCOC[C@@H]2C)nc2[nH]c(-c3ccccn3)nc12` [Example 7, 2-((S)-3-Methyl-morpholin-4-yl)-6-((R)-3-methyl-morpholin-4-yl)-8-pyridin-2-yl-9H-purine]: the IC50 at recombinant human mTOR worked out at 184 nM; in assay [1] (setting [2]), 997 nM. The molecule further registered an EC50 in the assay with H4 mCherry-GFP-LC3 cells of 1320 nM.

As to `C[C@@H]1COCCN1c1nc(N2CCOC[C@H]2C)c2nc(-c3ccccn3)[nH]c2n1` [Example 1, 2,6-Bis-((R)-3-methyl-morpholin-4-yl)-8-pyridin-2-yl-9H-purine], the 50% inhibitory concentration (IC50) on recombinant human mTOR came to 139 nM; in assay [1] (setting [2]), 1010 nM. The molecule further showed an EC50 with H4 mCherry-GFP-LC3 cells of 351 nM.

For `COc1cc(-c2nc3c(N4CCOC[C@H]4C)nc(N4CCOC[C@@H]4C)nc3[nH]2)c2cc[nH]c2c1` [Example 31, 8-(6-Methoxy-1H-indol-4-yl)-2-((S)-3-methyl-morpholin-4-yl)-6-((R)-3-methyl-morpholin-4-yl)-9H-purine], the IC50 at recombinant human mTOR was determined as 28 nM; in assay [1] (setting [3]), 71 nM. The molecule also had a concentration giving a half-maximal response (EC50) in the assay with H4 mCherry-GFP-LC3 cells of 145 nM.

In the case of `C[C@@H]1COCCN1c1nc(N2CCN(C)CC2)nc2[nH]c(-c3cccc4[nH]ccc34)nc12` [Example 16, 8-(1H-Indol-4-yl)-6-((R)-3-methyl-morpholin-4-yl)-2-(4-methyl-piperazin-1-yl)-9H-purine], the results for the IC50 (at recombinant human mTOR; in assay [1] (setting [3])) were 308 nM and 259 nM, respectively. For the same molecule, the “Test 3: Autophagy EC50 (nM)” value in the assay on H4 mCherry-GFP-LC3 cells is “n.m”.

`C[C@@H]1COCCN1c1nc(N2CCC(C(F)(F)F)CC2)nc2[nH]c(-c3cccc4[nH]ccc34)nc12` [Example 22, 8-(1H-Indol-4-yl)-6-((R)-3-methyl-morpholin-4-yl)-2-(4-trifluoromethyl-piperidin-1-yl)-9H-purine]: the IC50 was determined as 1510 nM at recombinant human mTOR and 1040 nM in assay [1] (setting [3]). The same molecule displayed a half-maximal effective concentration (EC50) with H4 mCherry-GFP-LC3 cells of 1680 nM.

Turning to `COC(=O)c1cc(-c2nc3c(N4CCOC[C@H]4C)nc(N4CCOC[C@H]4C)nc3[nH]2)c2cc[nH]c2c1` [Example 32, 4-[2,6-Bis-((R)-3-methyl-morpholin-4-yl)-9H-purin-8-yl]-1H-indole-6-carboxylic acid methyl ester], the 50% inhibitory concentration (IC50) was found to be 533 nM at recombinant human mTOR and 1120 nM in assay [1] (setting [3]). Further, the EC50 with H4 mCherry-GFP-LC3 cells is greater than 6000 nM.

For the molecule `C[C@@H]1COCCN1c1nc(N2CCOC[C@H]2C)c2nc(-c3cc(CO)cc4[nH]ccc34)[nH]c2n1` [Example 6, {4-[2,6-Bis-((R)-3-methyl-morpholin-4-yl)-9H-purin-8-yl]-1H-indol-6-yl}-methanol], the IC50 amounted to 66 nM at recombinant human mTOR and 1180 nM in assay [1] (setting [3]). The molecule further came in with a concentration giving a half-maximal response (EC50) with H4 mCherry-GFP-LC3 cells of 423 nM.

With `C[C@@H]1COCCN1c1nc(N2CCOC[C@H]2C)c2nc(-c3ccc(N)nc3)[nH]c2n1` [Example 28, 5-[2,6-Bis-((R)-3-methyl-morpholin-4-yl)-9H-purin-8-yl]-pyridin-2-ylamine], the figures for the IC50 (at recombinant human mTOR; in assay [1] (setting [3])) were 754 nM and 272 nM, respectively. Also, in the assay with H4 mCherry-GFP-LC3 cells, the 50% effective concentration (EC50) turned out to be 2370 nM.

On to `C[C@@H]1COCCN1c1nc(N2CCCOCC2)nc2[nH]c(-c3cccc4[nH]ccc34)nc12` [Example 3, 8-(1H-Indol-4-yl)-6-((R)-3-methyl-morpholin-4-yl)-2-[1,4]oxazepan-4-yl-9H-purine], for which the IC50 on recombinant human mTOR came out at 164 nM; in assay [1] (setting [3]) it was 76 nM. In the assay on H4 mCherry-GFP-LC3 cells, this molecule came in with a 50% effective concentration (EC50) of 422 nM.

As to `C[C@@H]1COCCN1c1nc(N2CCOC[C@H]2C)c2nc(-c3cnc(N)nc3)[nH]c2n1` [Example 29, 5-[2,6-Bis-((R)-3-methyl-morpholin-4-yl) 9H-purin-8-yl]-pyrimidin-2-yl-amine], the concentration for half-maximal inhibition (IC50) at recombinant human mTOR is 1310 nM; in assay [1] (setting [3]), 498 nM. Also, a half-maximal response in the assay on H4 mCherry-GFP-LC3 cells (EC50) required 3610 nM.

`C[C@H]1COCCN1c1nc(N2CCOC[C@@H]2C)c2nc(-c3cc[nH]n3)[nH]c2n1` [Example 10, 2,6-Bis-((S)-3-methyl-morpholin-4-yl)-8-(1H-pyrazol-3-yl)-9H-purine]: the IC50 on recombinant human mTOR is 343 nM; in assay [1] (setting [2]) it was 135 nM. In the assay on H4 mCherry-GFP-LC3 cells, a half-maximal response (EC50) required 1440 nM.
